Reference: US20250325562A1, “Intravenous Ganaxolone Formulations and Methods of Use in Treating Status Epilepticus and Other Seizure Disorders” (MARINUS PHARMACEUTICALS, INC., priority 2015, published 2025)

Tests used:
[1] = Ganaxolone concentration reached in 30% Captisol solutions (with additives or dry mixing), HPLC; assay type: physicochemical
Experimental: 500 μl of 10% aqueous Polysorbate 80 solution in a 20 ml scintillation vial were combined with powdered ganaxolone (50 mg). The mixture was stirred to wet the ganaxolone. Solid Captisol (3.2 g), sufficient to form a 30% Captisol solution, was then added to the vial and the vial contents were mixed. Deionized water (8.0 g) was then added and the mixture was vigorously stirred at room temperature overnight to obtain a hazy solution. An aliquot was filtered through 0.2 μm syringe filter and ganaxolone concentration was assayed by HPLC to be 4.28 mg/ml.
Ganaxolone was vigorously stirred in 30% Captisol in the presence of 10% v/v ethanol overnight to obtain a 3.16 mg/ml ganaxolone solution. • (b) Ganaxolone-30% Captisol solution containing glycerin
Ganaxolone was vigorously stirred in 30% Captisol in the presence of 10% v/v glycerin overnight to obtain a 3.45 mg/ml ganaxolone solution. • (c) Ganaxolone-30% Captisol solution containing propylene glycol
Ganaxolone was vigorously stirred in 30% Captisol in the presence of 10% v/v propylene glycol overnight to obtain a 2.53 mg/ml ganaxolone solution.
Powdered ganaxolone (125 mg) was charged into 100 ml beaker. Captisol powder (7.9 g) was then added to the beaker. The mixture was mixed by stirring with a magnetic stir bar for 5 min. Deionized water (20.1 g) was weighed into a plastic cup. About half of the water was added into the beaker and the contents were vigorously stirred for 30 minutes to obtain a homogeneous mixture. The remaining water was added and the beaker was covered with paraffin film.

[2] = Phase solubility of ganaxolone in aqueous CAPTISOL solutions, HPLC; assay type: physicochemical; conditions: for Ganaxolone conc. by HPLC: 42 hours equilibrium
Experimental: Ganaxolone solubility in aqueous CAPTISOL solution was first determined by constructing a phase solubility diagram. Excess ganaxolone was shaken in aqueous CAPTISOL solutions of known concentrations for 42 hours to reach equilibrium. The ganaxolone solution was filtered into HPLC vials through 0.45 μm syringe filters. The filtrates were assayed for ganaxolone concentration by HPLC. Moles of ganaxolone in solution against moles of CAPTISOL added were plotted.

SMILES: CC(=O)[C@H]1CC[C@H]2[C@@H]3CC[C@H]4C[C@](C)(O)CC[C@]4(C)[C@H]3CC[C@]12C [Ganaxolone, 3α-hydroxy, 3β-methyl-5α-pregnan-20-one]
- ganaxolone concentration by HPLC ([1]; 30% Captisol with Polysorbate 80, stirred overnight at room temperature, 0.2 μm filtered): 4.28 mg/mL
- ganaxolone concentration of solution ([1]; 30% Captisol, 10% v/v ethanol, stirred overnight): 3.16 mg/mL
- ganaxolone concentration of solution ([1]; 30% Captisol, 10% v/v glycerin, stirred overnight): 3.45 mg/mL
- ganaxolone concentration of solution ([1]; 30% Captisol, 10% v/v propylene glycol, stirred overnight): 2.53 mg/mL
- ganaxolone concentration after prolonged stirring ([1]; 30% Captisol, dry mixing, after 90 hours of stirring): unchanged
- ganaxolone concentration of solution ([1]; 30% Captisol, prior dry mixing of ganaxolone and Captisol, stirred overnight at room temperature): 4.61 mg/mL
- Ganaxolone conc. ([2]; CAPTISOL 0 mg/mL): 0 mM
- Ganaxolone conc. by HPLC ([2]; CAPTISOL 0 mg/mL): Not detectable
- Ganaxolone conc. ([2]; CAPTISOL 25 mg/mL (0.0116 M)): 1.3 mM
- Ganaxolone conc. by HPLC ([2]; CAPTISOL 25 mg/mL (0.0116 M)): 0.43 mg/mL
- Ganaxolone conc. ([2]; CAPTISOL 50 mg/mL (0.0231 M)): 2.7 mM
- Ganaxolone conc. by HPLC ([2]; CAPTISOL 50 mg/mL (0.0231 M)): 0.88 mg/mL
- Ganaxolone conc. ([2]; CAPTISOL 100 mg/mL (0.0462 M)): 5.6 mM
- Ganaxolone conc. by HPLC ([2]; CAPTISOL 100 mg/mL (0.0462 M)): 1.86 mg/mL
- Ganaxolone conc. ([2]; CAPTISOL 200 mg/mL (0.0925 M)): 10.9 mM
- Ganaxolone conc. by HPLC ([2]; CAPTISOL 200 mg/mL (0.0925 M)): 3.63 mg/mL
- Ganaxolone conc. ([2]; CAPTISOL 400 mg/mL (0.185 M)): 23.1 mM
- Ganaxolone conc. by HPLC ([2]; CAPTISOL 400 mg/mL (0.185 M)): 7.68 mg/mL
